Experimental data: article PMC7809101, “Fetal bovine serum albumin inhibits antimicrobial peptide activity and binds drug only in complex with α1-antitrypsin” (Scientific Reports, 2021)

Tests used:
[1] = biological target: T1, protein D (albumin and α1-antitrypsin complex) (Bos taurus, UniProt P02769+P34955); test: Cross-linking of AMP-protein D complex and Western blotting; type: binding, bovine; conditions: AMP/protein D cross-linked with glutaraldehyde, PC buffer, 37 °C, 30 min; reduced SDS-PAGE, Western blotting
T1 construct: The active components were further purified by fast performance liquid chromatography (FPLC) Mono Q and S12 column chromatography from the 70% saturated fraction; from tissue; host or cells: fetal bovine serum (70% ammonium sulfate fraction, FPLC Mono Q and Superose 12)
Experimental: Small aliquots of serum components (4 μg) in the presence/absence of AMPs (2 μg) were incubated with various concentrations of glutaraldehyde in 10 μl PC buffer at 37 °C for 30 min. […]

[2] = biological target: T1, protein D (albumin and α1-antitrypsin complex); test: Pulling down of protein D by immobilized biotinylated TP4-A12I,A15I; type: binding, bovine
Experimental: (§1) Streptavidin-conjugated beads were incubated with 10 μg of biotinylated TP4-A12I,A15I peptides in 600 μl PC buffer for one hour on a rolling wheel. The immobilized biotinylated AMPs were further mixed with serum components in the indicated 600 μl buffer(s) at room temperature for 30 min on a rolling wheel, then washed twice with 600 μl respective buffer and subjected to SDS-PAGE and Coomassie Blue staining. Specific proteins were excised from SDS-PAGE gel and subjected to in-gel trypsin digestion and liquid chromatography-tandem mass spectrometry.

[3] = biological target: T1, protein D (albumin and α1-antitrypsin complex); test: Band shift of AMPs by protein D; type: binding, bovine
[4] = biological target: T1, protein D (albumin and α1-antitrypsin complex); test: Fluorescence emission spectrum (blue shift), protein D; type: binding, bovine; conditions: protein D 0.75 μM, PC buffer, 25 °C, 30 min; excitation 285 nm, emission 300–450 nm; reagent up to: sarkosyl 320, TP4-A12I,A15I 120, ibuprofen 24, phenytoin 20 μM
Experimental: (§2) The mixtures were excited by 285 nm and its emission spectra were recorded between 300 and 450 nm using a temperature-controlled fluorimeter (FP8500, Jasco, Japan)[13].

[5] = system: Escherichia coli K-12 (MG1655); test: Antimicrobial (bactericidal) activity against E. coli, effect of serum or serum proteins; type: cell-based; conditions: FBS, PBS, 37 °C (Fig. 1d)
Experimental: The Gram-negative bacteria Escherichia coli K-12 (MG1655) was cultured and plated in/on Luria–Bertani broth/agar plate (Merck Millipore, Darmstadt, Germany). The Gram-positive Staphylococcus aureus (ATCC 6538P) was cultured and plated in tryptic soy broth/agar (BD, MD, USA). The fungus Candida albicans (ATCC 14,053) was cultured and plated in YM broth/agar (BD, MD, USA). The bacteria were grown overnight, washed, and diluted 1:2000 in phosphate buffered saline (PBS), pH 7.5 or DMEM (Life Biotech, California, USA), pH 7.4. Bacteria (ca. 1 × 10^6 colony-forming units, cfu) were mixed with antimicrobial peptides (AMP) in 100 μl PBS and incubated at 37 °C (for bacteria) and at 30 °C (for fungus). Serial dilutions of each AMP-treated bacteria in PBS/DMEM supplemented with FBS were prepared and plated for the determination of remaining viable cells (expressed as cfu). At least three independent experiments were performed for each assay to determine the average value with standard deviation. MBC was defined as the lowest AMP concentration that kills 99.9% of the original inoculum.

protein A (albumin) [6] = biological target: T2, protein A (albumin) (Bos taurus, UniProt P02769); conditions: biolayer interferometry, Octet RED384; immobilized biotinylated TP4-A12I,A15I
Experimental: (§4) The biolayer interferometry were measured by an Octet RED384 instrument (ForteBio). […] Serial dilutions of serum components in 200 μl PC buffer were used as analyte. Affinity (Kd) and kinetic parameters (kon and koff) were calculated from a global fit (1:1) of the data using the Octet RED384 software[27].

protein A (albumin) [7] = biological target: T2, protein A (albumin); test: Fluorescence emission spectrum (blue shift), protein A; type: binding, bovine; set-up: The homogeneities of collected protein A (albumin), protein B (α1-antitrypsin), protein C (serotransferrin) and protein D complex; from tissue; host or cells: fetal bovine serum (70% ammonium sulfate fraction, FPLC Mono Q); conditions: protein A 0.75 μM, PC buffer, 25 °C, 30 min; excitation 285 nm, emission 300–450 nm; reagent up to: sarkosyl 320, TP4-A12I,A15I 120, ibuprofen 24, phenytoin 20 μM
Experimental: as §2

protein A (albumin) [8] = biological target: T2, protein A (albumin); test: Pulling down of protein A by immobilized biotinylated TP4-A12I,A15I; type: binding, bovine; set-up: The homogeneities of collected protein A (albumin), protein B (α1-antitrypsin), protein C (serotransferrin) and protein D complex; from tissue; host or cells: fetal bovine serum (70% ammonium sulfate fraction, FPLC Mono Q); conditions: biotinylated peptide on Streptavidin-conjugated beads; PC buffer, room temperature, 30 min
Experimental: as §1

crude bovine serum = test: Pulling down of proteins from crude bovine serum by biotinylated TP4-A12I,A15I; type: binding
Experimental: as §1

[9] = biological target: T1, protein D (albumin and α1-antitrypsin complex); test: Biolayer interferometry, protein D; type: binding, bovine; conditions: biotinylated TP4-A12I,A15I
Experimental: as §4

[10] = biological target: T3, protein B (α1-antitrypsin) (Bos taurus, UniProt P34955); conditions: biolayer interferometry, Octet RED384; immobilized biotinylated TP4-A12I,A15I
T3 sequence (P34955 25-416): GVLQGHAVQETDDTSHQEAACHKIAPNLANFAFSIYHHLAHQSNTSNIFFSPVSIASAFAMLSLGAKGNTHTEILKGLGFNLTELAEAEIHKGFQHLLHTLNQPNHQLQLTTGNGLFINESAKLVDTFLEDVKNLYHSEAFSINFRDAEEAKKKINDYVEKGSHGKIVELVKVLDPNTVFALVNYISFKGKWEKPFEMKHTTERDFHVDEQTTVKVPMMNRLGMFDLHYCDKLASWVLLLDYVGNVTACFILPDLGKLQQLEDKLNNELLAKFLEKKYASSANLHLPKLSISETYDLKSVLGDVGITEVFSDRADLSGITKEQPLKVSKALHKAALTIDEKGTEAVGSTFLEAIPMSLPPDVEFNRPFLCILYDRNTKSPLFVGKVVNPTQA
Experimental: as §4

fetal bovine serum (FBS) = test: Band shift of AMPs by fetal bovine serum; type: binding
Experimental: (§3) Various AMPs (4 μg each) were incubated with fetal bovine serum (FBS) components at room temperature in 10 μl PC buffer for 30 min and subjected to horizontal native 8% PAGE, pH8.0 or pH8.8, and Coomassie Blue staining.

[11] = biological target: T1, protein D (albumin and α1-antitrypsin complex); test: Inhibition of the binding of TP4-A12I,A15I to protein D (band shift competition); set-up: species or system bovine
Experimental: Reagents were added to the protein A and protein D at the indicated concentrations and excited at […] and recorded for the emission spectrum between 300 to 450 nm.
as §3

protein A/D mixture = test: FPLC S12 gel filtration of proteins A/D mixture with TP4-A12I,A15I; type: binding, bovine; conditions: reduced SDS-PAGE of eluates
Text: To further investigate the differential binding of AMP to protein A and protein D, the TP4-A12I,A15I and protein A/D was mixed and subjected to gel filtration chromatography (FPLC S12). There was a front shoulder on the elution profile (Fig. 3g).

serum protein = conditions: cited from earlier work
Experimental: Albumin is the most abundant protein in human serum (HSA, 45 mg/ml), followed in descending order by α1-antitrypsin (A1AT, 3.5 mg/ml), transferrin (2.5 mg/ml), α2-macroglobulin (2.5 mg/ml), haptoglobulin (1.8 mg/ml), low-density lipoprotein (LDL, 1.2 mg/ml), α1-acid glycoprotein (AGP, 0.8 mg/ml) and high-density lipoprotein (HDL, 0.6 mg/ml)[11]. These proteins are involved in the transportation of fatty acids, cholesterols, toxins and drugs in the blood stream.

T2 sequence (P02769 25-607): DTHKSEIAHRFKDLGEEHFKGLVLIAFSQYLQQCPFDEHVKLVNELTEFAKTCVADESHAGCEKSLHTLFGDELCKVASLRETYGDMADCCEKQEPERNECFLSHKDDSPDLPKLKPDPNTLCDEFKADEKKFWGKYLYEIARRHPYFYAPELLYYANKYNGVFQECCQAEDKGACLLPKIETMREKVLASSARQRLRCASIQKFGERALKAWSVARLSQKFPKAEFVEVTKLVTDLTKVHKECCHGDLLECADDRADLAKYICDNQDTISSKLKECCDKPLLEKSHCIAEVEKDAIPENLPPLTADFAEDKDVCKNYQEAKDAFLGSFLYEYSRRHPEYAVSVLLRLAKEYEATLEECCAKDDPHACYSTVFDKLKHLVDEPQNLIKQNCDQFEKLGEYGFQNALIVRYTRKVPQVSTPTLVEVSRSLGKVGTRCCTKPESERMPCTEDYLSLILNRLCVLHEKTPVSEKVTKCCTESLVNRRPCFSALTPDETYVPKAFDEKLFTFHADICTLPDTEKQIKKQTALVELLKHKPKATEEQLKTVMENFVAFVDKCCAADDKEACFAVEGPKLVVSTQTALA
T1 sequence (P02769 25-607, one chain of several): as the sequence (P02769 25-607) above

CC[C@H](C)[C@H](NC(=O)[C@H](CO)NC(=O)[C@H](Cc1ccccc1)NC(=O)[C@H](CC(C)C)NC(=O)CNC(=O)CNC(=O)[C@@H](NC(=O)[C@@H](NC(=O)[C@H](Cc1c[nH]cn1)NC(=O)[C@H](Cc1c[nH]cn1)NC(=O)[C@@H](NC(=O)[C@@H](N)Cc1ccccc1)[C@@H](C)CC)[C@@H](C)CC)[C@@H](C)CC)C(=O)NCC(=O)N[C@@H](CCCCN)C(=O)N[C@H](C(=O)N[C@H](C(=O)N[C@@H](Cc1c[nH]cn1)C(=O)N[C@@H](CCCNC(=N)N)C(=O)N[C@@H](CC(C)C)C(=O)N[C@H](C(=O)N[C@@H](CCCNC(=N)N)C(=O)N[C@@H](CCCNC(=N)N)C(=O)N[C@@H](CCCNC(=N)N)C(=O)N[C@@H](CCCNC(=N)N)C(=O)N[C@@H](CCCNC(=N)N)C(=O)O)[C@@H](C)CC)[C@@H](C)CC)[C@@H](C)CC [TP4-A12I,A15I]
association with proteins after cross-linking [1]: associated with protein A, protein B as well as monomeric and dimeric protein D
binding of protein D in the presence of SDS (dimerization inhibited) ([2]; 2 × SDS, equivalent to 0.125% SDS (w/v), pulling down, 15% non-reducing SDS-PAGE): unable to bind
protein retained on immobilized TP4-A12I,A15I after β-ME wash ([2]; pulled-down protein D dissociated by β-ME (1X = 0.25%), 8% reduced SDS-PAGE): only protein B was still tightly associated
binding of protein D constituents after dissociation by β-ME ([2]; β-ME 0.1–0.4%, pulling down (Fig. 4f)): some protein D constituents were able to bind
change of binding ability to protein D by mutation of TP4 ([3]; band shift, Supplementary Fig. 3b, TP4 mutants 4 μg, 8% horizontal native PAGE): increased the binding ability
binding to protein D (band shift, Fig. 7b) ([3]; protein A and D mixture (20 μg each), TP4-A12I,A15I 4 μg, 37 °C, 30 min, native PAGE, pH8.8): only protein D, but not protein A, was bound
AMP-binding ability of protein D reduced by β-ME (band shift) ([3]; protein D reduced by β-ME, band shift (Fig. 4e)): destroyed
blue shift of fluorescence emission spectrum, protein D [4]: blue shift of fluorescence emission spectrum of protein D was observed
susceptibility of bactericidal activity to serum's inhibition (E. coli), relative to TP4 [5]: more susceptible to serum’s inhibition
Kd (protein A) (protein A (albumin) [6]): not detectable
blue shift of fluorescence emission spectrum, protein A (protein A (albumin) [7]): did not cause blue shift
binding to protein A (pulling down) (protein A (albumin) [8]): not by protein A
location of TP4-A12I,A15I-binding components after ammonium sulfate fractionation (pulling down) (crude bovine serum; 30%, 50%, 70% and 90% saturation, pulling down): mainly located at the 70% ammonia sulfate saturation fraction
proteins pulled down from crude serum (major band) (crude bovine serum; biotinylated TP4-A12I,A15I on Streptavidin-conjugated beads, SDS-PAGE, LC/MS/MS, major band): major band consisted of albumin and α1-antitrypsin
proteins pulled down from crude serum (minor band) (crude bovine serum; biotinylated TP4-A12I,A15I on Streptavidin-conjugated beads, SDS-PAGE, LC/MS/MS, minor band): minor band was identified to be apolipoprotein AI (Apo-AI)
reversibility and potency of binding of protein D [9]: potent and reversible binding
Kd (protein B) [10]: not detectable
location of TP4-A12I,A15I-binding components after ammonium sulfate fractionation (band shift) (fetal bovine serum (FBS); 30%, 50%, 70% and 90% saturation, band shift): mainly located at the 70% ammonia sulfate saturation fraction
FBS-mediated band shift of TP4 mutants (fetal bovine serum (FBS); AMP 4 μg with FBS, 10 μl PC buffer, room temperature, 30 min, horizontal native 8% PAGE, pH8.0): enhanced the shift
proposed binding site in protein D ([11]; inferred from competition and fluorescence): probably at the drug-binding site II of albumin in the protein D complex
co-elution with albumin in gel filtration (protein A/D mixture): co-eluted with albumin only at the front shoulder fractions

O=C1NC(=O)C(c2ccccc2)(c2ccccc2)N1 [phenytoin]
bound to serum protein (serum protein): 90%
blue shift of fluorescence emission spectrum, protein D [4]: no blue shift was seen
blue shift of fluorescence emission spectrum, protein A (protein A (albumin) [7]): no blue shift was seen
inhibition of binding of TP4-A12I,A15I to protein D ([11]; protein A and D mixture (20 μg each) pre-incubated with drug 30 min, then TP4-A12I,A15I (4 μg) at 37 °C, 30 min, native PAGE, pH8.8): not
